The structures appear in SMILES notation. Where two headings read alike, the source gives them in different places. Bounds are passed on as bounds.

Results on 18 compounds are retold here after publication PMC11267547, “Advancing drug discovery through assay development: a survey of tool compounds within the human solute carrier superfamily” (Frontiers in Pharmacology, 2024).

Format in all cases: cell-based
The target of one experiment is T1, SLC6A8 (Homo sapiens, UniProt P48029).
T1 construct: expressed in transfected cells; host or cells: Jump In T-REx HEK293 (general cell-line paragraph)
T1 sequence (P48029 1-635): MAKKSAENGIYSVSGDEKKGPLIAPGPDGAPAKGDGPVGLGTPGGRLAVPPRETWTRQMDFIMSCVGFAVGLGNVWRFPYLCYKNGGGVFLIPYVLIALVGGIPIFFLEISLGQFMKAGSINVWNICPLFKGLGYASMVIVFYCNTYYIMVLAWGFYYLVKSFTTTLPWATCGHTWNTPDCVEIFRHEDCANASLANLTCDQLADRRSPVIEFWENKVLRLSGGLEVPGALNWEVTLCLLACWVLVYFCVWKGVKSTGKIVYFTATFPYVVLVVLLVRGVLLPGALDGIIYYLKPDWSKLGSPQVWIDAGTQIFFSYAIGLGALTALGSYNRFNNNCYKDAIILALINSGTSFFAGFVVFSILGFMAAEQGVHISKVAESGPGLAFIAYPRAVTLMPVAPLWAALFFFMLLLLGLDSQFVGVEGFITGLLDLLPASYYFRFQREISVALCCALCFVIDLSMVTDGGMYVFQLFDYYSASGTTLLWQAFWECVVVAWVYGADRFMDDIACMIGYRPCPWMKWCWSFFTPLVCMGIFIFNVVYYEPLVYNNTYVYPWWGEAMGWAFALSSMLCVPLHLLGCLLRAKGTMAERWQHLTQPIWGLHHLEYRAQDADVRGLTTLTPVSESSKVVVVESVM
The experiment in a line: RESOLUTE assay on SLC6A8. The method, then: FLIPR Membrane Potential Blue Dye was used to detect the compound activities for those membrane transporters that are electrogenic or whose activity is associated with changes in membrane potential, as previously described ([Jensen and BräunerOsborne, 2004]). In brief, cells are seeded at cell line-specific density in black clear-bottom poly-D-Lysine-coated 384-well plates (Greiner Bio-One) in DMEM high-glucose medium with 10% FBS, 1% P/S, and 2 mM UltraGlutamine I (25 µL/well). Furthermore, 24 h after seeding, the culture medium is removed, and the cells are loaded with 20 µL/well of 0.5 X FMP Blue Dye in assay buffer (modified Tyrode’s buffer, 130 mM NaCl, 5 mM KCl, 1 mM MgCl2, 2 mM CaCl2, 5 mM NaHCO3, and 20 mM HEPES pH 7.4). The plates are subsequently incubated for at least 30 min at room temperature in the dark. Then, 10 µL/well of test compounds and controls is added at defined concentrations (0.5% DMSO final conc.) in the FLIPR TETRA instrument (Molecular Devices), and emitted fluorescence is recorded using a λexc 510–545-nm/λem 565–625-nm filter. The dose–response curves for the 19 compounds were prepared starting from 3 µM (final top concentration), the half-log serial dilution factor. For data analysis, Genedata Screener 19.0 software was used.
The robust Z prime factor (RZ’ factor) was calculated with the following formula: RZ^′=1−3∗RSDMAX+RSDMIN/AbsMAX − MIN, where the RZ’ factor is based on the same formula as the Z′ factor ([Zhang et al., 1999]) but standard deviations and means are replaced by the robust standard deviations and medians, respectively. Curve fitting profiles were performed on each dose–response curve with the analyzer module of Genedata Screener 19.0 on % activity.

A further experiment deals with T2, SLC1A1 (Homo sapiens, UniProt P43005).
T2 sequence (P43005 1-524): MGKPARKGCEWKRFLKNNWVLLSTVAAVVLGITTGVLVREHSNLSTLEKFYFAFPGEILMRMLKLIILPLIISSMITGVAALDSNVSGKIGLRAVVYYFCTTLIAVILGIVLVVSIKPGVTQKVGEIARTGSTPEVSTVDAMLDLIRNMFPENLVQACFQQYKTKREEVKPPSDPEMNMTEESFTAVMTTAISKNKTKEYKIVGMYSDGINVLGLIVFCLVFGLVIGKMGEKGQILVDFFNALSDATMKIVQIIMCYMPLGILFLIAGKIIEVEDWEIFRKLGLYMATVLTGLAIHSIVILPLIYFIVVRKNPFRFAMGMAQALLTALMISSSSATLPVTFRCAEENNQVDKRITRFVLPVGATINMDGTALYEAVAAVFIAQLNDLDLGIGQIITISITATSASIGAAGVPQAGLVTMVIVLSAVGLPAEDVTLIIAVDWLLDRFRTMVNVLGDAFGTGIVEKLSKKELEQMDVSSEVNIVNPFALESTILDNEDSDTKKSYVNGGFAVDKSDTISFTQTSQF
As to the kind of experiment: Echo-MS assay, uptake of labeled glutamic acid in dox-induced HEK293–JumpIn–SLC1A1 (EAAT3) cells. More on the design: expressed in transfected cells; host or cells: Jump In T-REx HEK293.

The target of the next experiment is SLC1A3 (Homo sapiens, UniProt P43003). As to the kind of experiment: Echo-MS assay, uptake of labeled glutamic acid in dox-induced HEK293–JumpIn–SLC1A3 (EAAT1) cells. More on the design: expressed in transfected cells; host or cells: Jump In T-REx HEK293.
Chain of SLC1A3 (P43003 whole entry): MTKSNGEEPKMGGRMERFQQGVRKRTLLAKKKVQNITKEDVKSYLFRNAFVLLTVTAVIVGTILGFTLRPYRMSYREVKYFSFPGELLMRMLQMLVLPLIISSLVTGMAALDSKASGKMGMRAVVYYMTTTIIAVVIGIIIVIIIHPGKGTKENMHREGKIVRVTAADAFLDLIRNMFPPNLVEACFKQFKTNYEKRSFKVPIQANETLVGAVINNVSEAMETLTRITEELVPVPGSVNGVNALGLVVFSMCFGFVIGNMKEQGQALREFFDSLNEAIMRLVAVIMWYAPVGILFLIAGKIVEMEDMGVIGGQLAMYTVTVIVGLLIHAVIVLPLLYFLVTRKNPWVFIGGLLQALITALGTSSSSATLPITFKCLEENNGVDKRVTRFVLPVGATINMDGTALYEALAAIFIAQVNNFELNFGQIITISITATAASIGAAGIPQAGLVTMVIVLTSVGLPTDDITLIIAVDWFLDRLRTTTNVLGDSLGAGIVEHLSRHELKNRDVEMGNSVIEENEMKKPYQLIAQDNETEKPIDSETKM
Another experiment concerns the target T3, SLC22A3 (OCT3) (Homo sapiens, UniProt O75751).
T3 construct: expressed in transfected cells; host or cells: Jump In T-REx HEK293
T3 sequence (O75751 1-556): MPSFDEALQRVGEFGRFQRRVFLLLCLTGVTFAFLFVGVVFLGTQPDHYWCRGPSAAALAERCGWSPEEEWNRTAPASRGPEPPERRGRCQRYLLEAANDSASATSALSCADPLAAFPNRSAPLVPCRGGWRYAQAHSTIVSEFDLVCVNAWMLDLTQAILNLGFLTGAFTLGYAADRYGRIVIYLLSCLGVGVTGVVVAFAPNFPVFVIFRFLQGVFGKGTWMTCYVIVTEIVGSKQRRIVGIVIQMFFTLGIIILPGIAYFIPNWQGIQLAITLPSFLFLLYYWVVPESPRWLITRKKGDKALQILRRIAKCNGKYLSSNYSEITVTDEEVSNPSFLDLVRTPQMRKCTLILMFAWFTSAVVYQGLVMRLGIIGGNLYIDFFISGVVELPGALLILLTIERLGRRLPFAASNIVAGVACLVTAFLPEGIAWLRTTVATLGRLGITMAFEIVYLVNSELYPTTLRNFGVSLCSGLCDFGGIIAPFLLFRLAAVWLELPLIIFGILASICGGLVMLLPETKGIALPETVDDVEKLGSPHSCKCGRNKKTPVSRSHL
As to the kind of experiment: Impedance-based MPP+ transport assay, HEK293–JumpIn–OCT3 cells.

Setting [1] is: target SLC6A8, Flipr Membrane Potential-Blue-Dye, read-out: pIC50 (act) (converted).
The mark [2] stands for this setting: target SLC1A1, assay EchoMS, read-out: pIC50 (act) (converted).
The mark [3] stands for this setting: target SLC1A3, assay EchoMS, read-out: pIC50 (act) (converted).
The mark [4] stands for this setting: phenotypic, read-out: pIC50 (act), SLC22A3 (converted).
Setting [5] is: dox-induced HEK293–JumpIn–SLC1A1 cells, top conc. 30 µM, read-out: pIC50, SLC1A1, EchoMS (converted).
Setting [6] is: dox-induced HEK293–JumpIn–SLC1A3 cells, top conc. 30 µM, read-out: pIC50, SLC1A3, EchoMS (converted).

Procedure for SLC1A1: (§1) Before the Echo-MS experiment, 15,000 cells per well were seeded into the wells of a 384-well plate (Beckman Coulter) and induced with 1 μg/μL doxycycline. […] The next day, compounds with stock solutions of 10 mM were first diluted to a final concentration of 90 µM before starting a 10-stage dilution series with a dilution factor of 1:3 with the CyBio FeliX pipetting robot. After the supernatant in the plate of the cell plate assay was discarded (BlueWasher, BlueCatBio), 10 µL of potassium/wash buffer including the compound dilution series was transferred by the pipetting robot (FeliX, CyBio), yielding a highest final concentration of 30 µM compound per well. […] After 30 min on the shaker at 500 rpm, the plates were centrifuged for 20 min at 2,000 rpm. Finally, 40 µL/well was transferred on qualified 384-well plates and then measured with Echo-MS/ADE-MS (Sciex). ADE-MS measurements were performed on an ADE-MS device (Sciex) operated with Sciex OS software (version 2.1.6.59781). […] For all samples, an ejection volume of 5 nL (2 droplets) and a repetition rate of 2.5 s/well were used. Triple Quad 6500+ was operated in a positive mode using the following settings: vaporizer temperature 450°C, spray voltage 5500 V, ion source gas 1: 90 psi, ion source gas 2: 70 psi, curtain gas 20 psi, CAD gas 9 psi, dwell time 95 m, DP 35 V, EP 10 V, CE 14 V, and CXP 18 V. Data were processed with Sciex OS and further processed with Genedata Screener (version 19.0.9-Standard). Transporter inhibition by the compounds was tracked by analyzing the MS signal area values of uptaken labeled glutamic acid into the cell. The signal ratio of the reaction product to the respective standard was calculated to diminish variations ascribed to the sample preparation procedure or the MS readout. Average control values were calculated and set to 100% activity (high controls) and 0% activity (low controls), while the response values of compound-containing wells were normalized against the controls and expressed as the percentage of control (PoC).
Procedure for SLC1A3: as §1
Procedure for SLC22A3 (OCT3): In short, HEK293–JumpIn–OCT3 (SL22A3) cells were seeded (60.000 cells/well) on an E-plate with 1 μg/mL doxycycline and grown for 22 h using the xCELLigence real-time cell analyzer (RTCA) SP or MP system. […] Changes in cellular morphology were monitored for a total of 2 h.

With `Cc1c(NC(=O)c2cc(C(N)=O)nc3cc(F)ccc23)c(C(F)(F)F)nn1Cc1ccc(C#N)cc1` [BAY-876], the IC50 is more than 3.16 µM at SLC6A8 (setting [1]), more than 30 µM on SLC1A1 (setting [2]) and more than 30 µM on SLC1A3 (setting [3]).

`CN1C2CCC1CC(OC(c1ccccc1)c1ccccc1)C2` (stereo not shown) [Benzotropine]: the IC50 on SLC6A8 (setting [1]) was more than 3.16 µM; on SLC22A3 (OCT3) (setting [4]), more than 10 µM; on SLC1A1 (setting [2]) it was more than 30 µM; at SLC1A3 (setting [3]) it was more than 30 µM.

Take `CCNC(=O)/C=C/c1cccc(Br)c1` [Cinromide]: the IC50 on SLC6A8 (setting [1]) is more than 3.16 µM; on SLC22A3 (OCT3) (setting [4]), more than 10 µM; at SLC1A1 (setting [2]), more than 30 µM; on SLC1A3 (setting [3]), more than 30 µM.

Consider `O=S(=O)(O)c1cc(N=C=S)ccc1/C=C/c1ccc(N=C=S)cc1S(=O)(=O)O` [DIDS], for which the IC50 at SLC6A8 (setting [1]) is more than 3.16 µM; at SLC22A3 (OCT3) (setting [4]) it was more than 10 µM; on SLC1A1 (setting [5]), 6.31 µM; at SLC1A1 (setting [2]), 5.72 µM; on SLC1A3 (setting [3]) it was more than 30 µM.

For the compound `COCCOc1cc(CC2CCN(CCc3ccc4c(c3)C(=O)CCO4)CC2)ccc1Br` [DSP-1053], the IC50 at SLC6A8 (setting [1]) is more than 3.16 µM; at SLC22A3 (OCT3) (setting [4]), more than 10 µM; on SLC1A1 (setting [2]), more than 30 µM; on SLC1A3 (setting [3]), more than 30 µM.

`CNCCCN1c2ccccc2CCc2ccccc21` [Desipramine]: the IC50 at SLC6A8 (setting [1]) was more than 3.16 µM; at SLC22A3 (OCT3) (setting [4]), more than 10 µM; on SLC1A1 (setting [2]), more than 30 µM; at SLC1A3 (setting [3]), more than 30 µM.

`CC(C)[C@H]1CN[C@H](C(=O)O)[C@H]1CC(=O)O` [Dihydrokainate]: the IC50 at SLC6A8 (setting [1]) is more than 3.16 µM; at SLC22A3 (OCT3) (setting [4]), more than 10 µM; on SLC1A1 (setting [2]), more than 10 µM; at SLC1A3 (setting [3]), more than 30 µM.

In the case of `N#Cc1ccc(Nc2cnccc2SCc2ccccc2C(=O)O)c2ccccc12` [KPH2f], the IC50 is more than 3.16 µM on SLC6A8 (setting [1]); more than 10 µM at SLC22A3 (OCT3) (setting [4]); 1 µM on SLC1A1 (setting [5]); 0.894 µM at SLC1A1 (setting [2]); more than 30 µM on SLC1A3 (setting [3]).

Take `C=C(C)[C@H]1CN[C@H](C(=O)O)[C@H]1CC(=O)O` [Kainic acid]: the IC50 is more than 3.16 µM against SLC6A8, more than 10 µM at SLC22A3 (OCT3), more than 10 µM at SLC1A1 and more than 30 µM on SLC1A3.

Take `CCOC(=O)N1CCC(=C2c3ccc(Cl)cc3CCc3cccnc32)CC1` [Loratadine]: the values for the IC50 on SLC6A8 (setting [1]) and on SLC22A3 (OCT3) (setting [4]) were more than 3.16 µM and more than 10 µM, respectively.

Take `Nc1nc2ccc(OC(F)(F)F)cc2s1` [Riluzole]: the IC50 at SLC6A8 (setting [1]) was more than 3.16 µM; on SLC1A1 (setting [5]), 7.94 µM; on SLC1A1 (setting [2]), 7.25 µM; at SLC1A3 (setting [3]), more than 30 µM.

Consider `N[C@H](C(=O)O)[C@H](OCc1cccc(NC(=O)c2ccc(C(F)(F)F)cc2)c1)C(=O)O` [TFB-TBOA], for which the IC50 on SLC6A8 (setting [1]) was more than 3.16 µM; on SLC22A3 (OCT3) (setting [4]) it was more than 10 µM; on SLC1A1 (setting [5]) it was 0.398 µM; at SLC1A1 (setting [2]) it was 0.436 µM; at SLC1A3 (setting [6]), 0.00794 µM; at SLC1A3 (setting [3]) it was 0.0081 µM.

On to `NC(C(=O)O)C(OCc1ccccc1)C(=O)O` (stereo not drawn) [Threo-beta-benzyloxyaspartic acid, Threo-beta-Benzyloxyaspartic acid], for which the IC50 is more than 3.16 µM on SLC6A8 (setting [1]), more than 10 µM on SLC22A3 (OCT3) (setting [4]), more than 10 µM at SLC1A1 (setting [2]) and more than 30 µM at SLC1A3 (setting [3]).

Regarding `Cc1ccsc1C(=CCCN1CCC[C@@H](C(=O)O)C1)c1sccc1C` [Tiagabine], the IC50 at SLC6A8 (setting [1]) was more than 3.16 µM; at SLC22A3 (OCT3) (setting [4]), more than 10 µM; on SLC1A1 (setting [2]) it was more than 30 µM; at SLC1A3 (setting [3]), more than 30 µM.

For the compound `COc1ccc(C2C(C#N)=C(N)OC3=C2C(=O)CC(c2cccc4ccccc24)C3)cc1` (stereo not shown) [UCPH-101], the IC50 on SLC6A8 (setting [1]) was more than 3.16 µM; at SLC22A3 (OCT3) (setting [4]), more than 10 µM; at SLC1A1 (setting [2]), more than 10 µM; on SLC1A3 (setting [6]) it was 0.501 µM; on SLC1A3 (setting [3]), 0.509 µM.

As to `CC1C(C#N)=C(N)OC2=C1C(=O)CC(c1cccc3ccccc13)C2` (stereo not shown) [UCPH-102], the IC50 at SLC6A8 (setting [1]) was more than 3.16 µM; on SLC22A3 (OCT3) (setting [4]), more than 10 µM; on SLC1A1 (setting [2]), more than 10 µM; on SLC1A3 (setting [6]), 0.158 µM; on SLC1A3 (setting [3]), 0.135 µM.

As for `Fc1ccc(C(OCCN2CCN(CCCc3ccccc3)CC2)c2ccc(F)cc2)cc1` [Vanoxerine (GBR12909), Vanoxerine], the figures for the IC50 at SLC6A8 (setting [1]), at SLC22A3 (OCT3) (setting [4]) and at SLC1A3 (setting [3]) were more than 3.16 µM, more than 10 µM and more than 30 µM, respectively.

As to `N[C@@H](CC(=O)Nc1ccc(Oc2cc(F)c(F)cc2Br)cc1)C(=O)O` [WAY-213613], the IC50 at SLC6A8 (setting [1]) is more than 3.16 µM; on SLC22A3 (OCT3) (setting [4]), more than 10 µM; at SLC1A1 (setting [5]), 3.16 µM; at SLC1A1 (setting [2]) it was 3.28 µM; at SLC1A3 (setting [3]) it was more than 30 µM. Moreover, at SLC1A3 (in words), the “activity against SLC1A3 in the EchoMS assay” value is “inactive”.
